Laboratory results published in PubChem BioAssay (NCI).
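Step 1: Grow cells in 96-well plates. Step 2: Expose to compound for 48 hours at 5 concentrations. Step 3: Interpolate endpoints linearly; if unreached, use highest concentration. TGI: total growth inhibition.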

Columns and labels:
Assay in all cases: DTP human tumour cell line panel, 48 h
[1] = system: COLO 205 colon
[2] = system: XF 498 CNS
[3] = system: HOP-18 NSCLC
[4] = system: SK-MEL-28 melanoma
[5] = system: K-562 leukemia
[6] = system: M19-MEL melanoma
[7] = system: A549 NSCLC
[8] = system: CCRF-CEM leukemia
[9] = system: DMS 114 small cell lung
[10] = system: HT29 colon
[11] = system: DMS 273 small cell lung
[12] = system: SNB-78 CNS
[13] = system: HCT-116 colon
[14] = system: ACHN renal
[15] = system: NCI-H23 lung
[16] = system: HCT-15 colon
[17] = system: SF-268 CNS
[18] = system: HL-60(TB) leukemia
[19] = system: U251 CNS
[20] = system: IGROV1 ovarian
[21] = system: SF-295 CNS
[22] = system: LOX IMVI melanoma
[23] = system: CAKI-1 renal
[24] = system: HOP-62 NSCLC
[25] = system: MALME-3M melanoma
[26] = system: UACC-257 melanoma
[27] = system: SK-MEL-5 melanoma
[28] = system: SK-MEL-2 melanoma
[29] = system: OVCAR-5 ovarian
[30] = system: SR leukemia
[31] = system: KM12 colon
[32] = system: M14 melanoma
[33] = system: MOLT-4 leukemia
[34] = system: OVCAR-3 ovarian
[35] = system: 786-0 renal
[36] = system: NCI-H460 lung
[37] = system: HCC-2998 colon
[38] = system: NCI-H522 lung
[39] = system: KM20L2 colon
[40] = system: UACC-62 melanoma
[41] = system: SF-539 CNS
[42] = system: SW-620 colon
[43] = system: SN12C renal
[44] = system: SK-OV-3 ovarian
[45] = system: UO-31 renal
[46] = system: OVCAR-8 ovarian
[47] = system: TK-10 renal
[48] = system: A498 renal
[49] = system: LXFL 529 NSCLC
[50] = system: HOP-92 NSCLC
[51] = system: SNB-19 CNS
[52] = system: DLD-1 colon
[53] = system: SNB-75 CNS
[54] = system: RXF-631 renal
[55] = system: EKVX NSCLC
[56] = system: RXF 393 renal
[57] = system: OVCAR-4 ovarian
[58] = system: RPMI-8226 leukemia

Measured: TGI

CCOC(=O)NC(=O)c1cn(CC(=O)NCC(=O)NCC(=O)NCCCN2CCN(CCCNC(=O)CNC(=O)CNC(=O)Cn3cc(C(=O)NC(=O)OCC)c(=O)[nH]c3=O)CC2)c(=O)[nH]c1=O
> 100 µM: [1] | [2] | [3] | [4] | [5] | [6] | [7] | [8] | [9] | [10] | [11] | [12] | [13] | [14] | [15] | [16] | [17] | [18] | [19] | [20] | [21] | [22] | [23] | [24] | [25] | [26] | [27] | [28] | [29] | [30] | [31] | [32] | [33] | [34] | [35] | [36] | [37] | [38] | [39] | [40] | [41] | [42] | [43] | [44] | [45] | [46] | [47] | [48] | [49] | [50] | [51] | [52] | [53] | [54]

c1ccc2c(c1)CCC/C2=N\OCC1CO1 (stereo not drawn)
98.9 µM: [56]
> 100 µM: [1] | [2] | [3] | [5] | [6] | [7] | [8] | [55] | [10] | [11] | [12] | [13] | [14] | [15] | [16] | [17] | [19] | [20] | [21] | [22] | [23] | [24] | [25] | [26] | [27] | [28] | [29] | [31] | [32] | [33] | [34] | [35] | [36] | [37] | [39] | [40] | [41] | [42] | [43] | [57] | [58] | [44] | [45] | [46] | [47] | [48] | [49] | [50] | [51] | [52] | [53] | [54]
92.1 µM: [18]
